Experimental data reported in patent US8227620B2, “Pharmaceutical compounds” (Neuroscienze Pharmaness S.C. A.R.L., priority 2004, dated 2012).
Entries after “also recorded” stand apart in the source; their conditions may differ.

What was measured:
CB1 receptors [1] = biological target: T1, CB1 receptors (Rattus norvegicus, UniProt P20272); test: Antagonism of WIN 55,212-2 induced hypothermia in vivo; details: for capability to pass the hemato-encephalic barrier: concluded from the hypothermia test; for antagonism of the body temperature reduction induced by WIN 55,212-2: i.p., compound 30 minutes before WIN 55,212-2 (3 mg/kg)
T1 sequence (P20272 whole entry): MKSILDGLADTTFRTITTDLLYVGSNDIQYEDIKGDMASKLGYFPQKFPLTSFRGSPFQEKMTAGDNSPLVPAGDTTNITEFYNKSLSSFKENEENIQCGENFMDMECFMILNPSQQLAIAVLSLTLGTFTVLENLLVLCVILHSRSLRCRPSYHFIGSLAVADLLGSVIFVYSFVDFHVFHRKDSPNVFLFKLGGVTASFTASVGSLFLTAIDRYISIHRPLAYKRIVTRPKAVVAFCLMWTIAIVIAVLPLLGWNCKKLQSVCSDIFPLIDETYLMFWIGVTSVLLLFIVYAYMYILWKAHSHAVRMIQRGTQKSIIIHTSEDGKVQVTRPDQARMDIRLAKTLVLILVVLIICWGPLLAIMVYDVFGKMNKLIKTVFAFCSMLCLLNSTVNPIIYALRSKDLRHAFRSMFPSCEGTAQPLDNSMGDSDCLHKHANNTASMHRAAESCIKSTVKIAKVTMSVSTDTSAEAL
Experimental: The rectal temperature in the rat was determined by an electronic thermometer inserted at a 2 mm depth. The measurements were carried out on rats acclimated for one hour. The rectal temperature was determined before and after (from 30 to 120 minutes) the i.p. administration of the compound to be tested.
Each test was repeated on ten animals; the reported results are the average of the results obtained with the ten animals.

rat intestinal motility = test: Intestinal motility, Upper Gut Transit Test; format: in vivo; details: for antagonism of the constipating effect of the CB1 agonist WIN 55,212-2 / effect on the intestinal transit rate / intestinal portion run by the marker relative to the length run after physiological solution with Tween 80: i.p.; for intestinal portion run by the marker relative to the length run after physiological solution with Tween 80: compound alone
Experimental: To further evaluate the activity in vivo of the compounds (I) object of the present invention, functional tests were carried out to evaluate the effect of said compounds on the rat intestinal motility. It was indeed shown the involvement of the cannabinoidergic CB1 receptors in the intestinal motility regulation in rat (R. G. Pertwee et al; Br. J. Pharmacol.; 1996, 118, 2199-2205). In particular, the CB1 receptor agonists slacken the gastrointestinal motility; antagonist compounds of the same receptors have instead a prokinetic effect on the gastrointestinal transit (G. Colombo et al.; Eur. J. Pharmacol.; 1998, 344, 67-69; M. A. Casu et al.; Eur. J. Pharmacol.; 2003, 459, 97-105).
The evaluation of the constipating or prokinetic effect of the compounds was carried out by the Upper Gut Transit Test method on the basis of the procedure defined and ratified by Y. Nagakura et al.; Eur. J. Pharmacol.; 1996, 311, 67-72. The method, which allows to measure the motility of the stomach and of the first intestine tract (small or little intestine), implies: • the administration of the compound to be tested by i.p. route; • the administration of carmine red (marker not directly absorbable from the stomach) by intragastric route through a metal probe, after 20 minutes from the administration of the compound to be tested; • the rat sacrifice by cervical dislocation after a pre-fixed time (30 minutes) starting from the administration time; • the intestine explant from pylorus to the ileo-cecal valve; • the determination of the intestinal part crossed by the marker; • the data processing to determine the percentage of crossed part with respect to the total length of the small intestine.
With respect to the control (physiological solution or carrier wherein the compounds to be tested were solubilized or dispersed), the administration of CB1 agonist compounds implies a reduction of the intestinal transit percentage; an opposite effect is noticed in case of antagonist compounds. The latter are therefore capable to cancel the constipating effect of CB1 agonist compounds.
Each test was repeated on ten animals; the results reported in the Examples are the average of the results obtained with ten animals.

CB1 receptors [2] = biological target: T1, CB1 receptors; test: Hypothermia test in vivo, compound alone (rectal temperature); parameters: from tissue; host or cells: whole animal (rat), central CB1 receptors of the hypothalamus; details: i.p., doses 0.1, 0.5, 1.0, 3.0, 6.0 mg/kg, versus physiological solution (38° C.)
Experimental: The test was carried out with the compound of the Example 3.1c. Aqueous samples were used wherein the compound of the Example 3.1c was dispersed in water with three drops of Tween 80. Following the above procedure, treatments were carried out with doses (mg compound/kg of body weight) respectively of 0.1; 0.5; 1.0; 3.0; 6.0.

[3] = WIN 55,212-2 (3 mg/kg) + compound 0.1 mg/kg, 0 min from WIN administration
[4] = WIN 55,212-2 (3 mg/kg) + compound 0.1 mg/kg, 15 min
[5] = WIN 55,212-2 (3 mg/kg) + compound 0.1 mg/kg, 30 min
[6] = WIN 55,212-2 (3 mg/kg) + compound 0.1 mg/kg, 60 min
[7] = WIN 55,212-2 (3 mg/kg) + compound 0.1 mg/kg, 90 min
[8] = WIN 55,212-2 (3 mg/kg) + compound 0.1 mg/kg, 120 min
[9] = WIN 55,212-2 (3 mg/kg) + compound 0.5 mg/kg, 0 min from WIN administration
[10] = WIN 55,212-2 (3 mg/kg) + compound 0.5 mg/kg, 15 min
[11] = WIN 55,212-2 (3 mg/kg) + compound 0.5 mg/kg, 30 min
[12] = WIN 55,212-2 (3 mg/kg) + compound 0.5 mg/kg, 60 min
[13] = WIN 55,212-2 (3 mg/kg) + compound 0.5 mg/kg, 90 min
[14] = WIN 55,212-2 (3 mg/kg) + compound 0.5 mg/kg, 120 min
[15] = WIN 55,212-2 (3 mg/kg) + compound 1.0 mg/kg, 0 min from WIN administration
[16] = WIN 55,212-2 (3 mg/kg) + compound 1.0 mg/kg, 15 min
[17] = WIN 55,212-2 (3 mg/kg) + compound 1.0 mg/kg, 30 min
[18] = WIN 55,212-2 (3 mg/kg) + compound 1.0 mg/kg, 60 min
[19] = WIN 55,212-2 (3 mg/kg) + compound 1.0 mg/kg, 90 min
[20] = WIN 55,212-2 (3 mg/kg) + compound 1.0 mg/kg, 120 min
[21] = WIN 55,212-2 (3 mg/kg) + compound 3.0 mg/kg, 0 min from WIN administration
[22] = WIN 55,212-2 (3 mg/kg) + compound 3.0 mg/kg, 15 min
[23] = WIN 55,212-2 (3 mg/kg) + compound 3.0 mg/kg, 30 min
[24] = WIN 55,212-2 (3 mg/kg) + compound 3.0 mg/kg, 60 min
[25] = WIN 55,212-2 (3 mg/kg) + compound 3.0 mg/kg, 90 min
[26] = WIN 55,212-2 (3 mg/kg) + compound 3.0 mg/kg, 120 min
[27] = WIN 55,212-2 (3 mg/kg) + compound 6.0 mg/kg, 0 min from WIN administration
[28] = WIN 55,212-2 (3 mg/kg) + compound 6.0 mg/kg, 15 min
[29] = WIN 55,212-2 (3 mg/kg) + compound 6.0 mg/kg, 30 min
[30] = WIN 55,212-2 (3 mg/kg) + compound 6.0 mg/kg, 60 min
[31] = WIN 55,212-2 (3 mg/kg) + compound 6.0 mg/kg, 90 min
[32] = WIN 55,212-2 (3 mg/kg) + compound 6.0 mg/kg, 120 min

| Molecule | Body temperature (° C.) (CB1 receptors [1]; [3]) [°C] | Body temperature (° C.) (CB1 receptors [1]; [4]) [°C] | Body temperature (° C.) (CB1 receptors [1]; [5]) [°C] | Body temperature (° C.) (CB1 receptors [1]; [6]) [°C] | Body temperature (° C.) (CB1 receptors [1]; [7]) [°C] | Body temperature (° C.) (CB1 receptors [1]; [8]) [°C] | Body temperature (° C.) (CB1 receptors [1]; [9]) [°C] | Body temperature (° C.) (CB1 receptors [1]; [10]) [°C] | Body temperature (° C.) (CB1 receptors [1]; [11]) [°C] | Body temperature (° C.) (CB1 receptors [1]; [12]) [°C] | Body temperature (° C.) (CB1 receptors [1]; [13]) [°C] | Body temperature (° C.) (CB1 receptors [1]; [14]) [°C] | Body temperature (° C.) (CB1 receptors [1]; [15]) [°C] | Body temperature (° C.) (CB1 receptors [1]; [16]) [°C] | Body temperature (° C.) (CB1 receptors [1]; [17]) [°C] | Body temperature (° C.) (CB1 receptors [1]; [18]) [°C] | Body temperature (° C.) (CB1 receptors [1]; [19]) [°C] | Body temperature (° C.) (CB1 receptors [1]; [20]) [°C] | Body temperature (° C.) (CB1 receptors [1]; [21]) [°C] | Body temperature (° C.) (CB1 receptors [1]; [22]) [°C] | further results |
| --- | --- | --- | --- | --- | --- | --- | --- | --- | --- | --- | --- | --- | --- | --- | --- | --- | --- | --- | --- | --- | --- |
| Cc1c(C(=O)NN2CCCCC2)nn(-c2ccc(Cl)cc2Cl)c1-c1ccc(Cl)s1 [Example 3.1b, N-piperidinyl-5-(5-Chloro-thiophen-2-yl)-1-(2′,4′-dichloro-phenyl)-4-methyl-1H-pyrazol-3-carboxamide] | 38.5 | 35.1 | 33.8 | 35.3 | 36.9 | 37.3 | 38.1 | 35.8 | 34.5 | 35.7 | 36.7 | 37.3 | 38.3 | 36.1 | 35.7 | 36.8 | 37.8 | 37.9 | 38.4 | 36.1 | Body temperature (° C.) (CB1 receptors [1]; [23]): 35.7 °C; Body temperature (° C.) (CB1 receptors [1]; [24]): 36.8 °C; Body temperature (° C.) (CB1 receptors [1]; [25]): 37.8 °C; Body temperature (° C.) (CB1 receptors [1]; [26]): 37.9 °C; Body temperature (° C.) (CB1 receptors [1]; [27]): 38.6 °C; Body temperature (° C.) (CB1 receptors [1]; [28]): 37.7 °C; Body temperature (° C.) (CB1 receptors [1]; [29]): 37.9 °C; Body temperature (° C.) (CB1 receptors [1]; [30]): 37.9 °C; Body temperature (° C.) (CB1 receptors [1]; [31]): 38.2 °C; Body temperature (° C.) (CB1 receptors [1]; [32]): 37.9 °C; capability to pass the hemato-encephalic barrier (CB1 receptors [1]): capable to pass the hemato-encephalic barrier; CB1 antagonist behaviour in vivo (CB1 receptors [1]; hypothermia test): shows a CB1 antagonist behaviour; antagonism of the body temperature reduction induced by WIN 55,212-2 (CB1 receptors [1]): able to antagonize the effect of WIN 55,212-2; length run by the marker relative to physiological solution, WIN 55,212-2 preceded by the compound (rat intestinal motility; WIN 55,212-2 0.5 mg/kg preceded by compound 1.0 mg/kg): the same length; antagonism of the constipating effect of the CB1 agonist WIN 55,212-2 (rat intestinal motility): capable to antagonize the effect of a CB1 agonist; also recorded: capable to antagonize the constipating effect of the CB1 agonist WIN 55,212-2; effect on the intestinal transit rate (rat intestinal motility): increase the intestinal transit rate; intestinal portion run by the marker relative to the length run after physiological solution with Tween 80 (rat intestinal motility; 0.5 mg of compound/kg): 1.57 times; intestinal portion run by the marker relative to the length run after physiological solution with Tween 80 (rat intestinal motility; 1.0 mg of compound/kg): 1.76 times; effect of the compound as such on body temperature (CB1 receptors [2]): does not cause as such any effect on the body temperature |
| N-pyrrolidinyl-5-(5-Chloro-thiophen-2-yl)-1-(2,4′-dichloro-phenyl)-4-methyl-1H-pyrazol-3-carboxamide [Example 3.1d] | 38.1 | 35.3 | 33.8 | 35.6 | 36.5 | 37.2 | 38.1 | 35.7 | 34.4 | 35.0 | 36.3 | 37.2 | 37.9 | 36.5 | 34.7 | 35.8 | 36.7 | 37.1 | 38.4 | 37.0 | Body temperature (° C.) (CB1 receptors [1]; [23]): 36.8 °C; Body temperature (° C.) (CB1 receptors [1]; [24]): 37.3 °C; Body temperature (° C.) (CB1 receptors [1]; [25]): 37.7 °C; Body temperature (° C.) (CB1 receptors [1]; [26]): 37.6 °C; Body temperature (° C.) (CB1 receptors [1]; [27]): 37.8 °C; Body temperature (° C.) (CB1 receptors [1]; [28]): 36.9 °C; Body temperature (° C.) (CB1 receptors [1]; [29]): 36.9 °C; Body temperature (° C.) (CB1 receptors [1]; [30]): 37.2 °C; Body temperature (° C.) (CB1 receptors [1]; [31]): 37.8 °C; Body temperature (° C.) (CB1 receptors [1]; [32]): 37.9 °C; capability to pass the hemato-encephalic barrier (CB1 receptors [1]): able to pass the hemato-encephalic barrier; antagonism of the body temperature reduction induced by WIN 55,212-2 (CB1 receptors [1]): able to antagonize the effect of WIN 55,212-2; length run by the marker relative to physiological solution, WIN 55,212-2 preceded by the compound (rat intestinal motility; WIN 55,212-2 0.5 mg/kg preceded by compound 0.5 mg/kg): the same length; antagonism of the constipating effect of the CB1 agonist WIN 55,212-2 (rat intestinal motility): capable to antagonize the effect of a CB1 agonist; effect on the intestinal transit rate (rat intestinal motility): increase the intestinal transit rate; intestinal portion run by the marker relative to the length run after physiological solution with Tween 80 (rat intestinal motility; 0.5 mg of compound/kg): 1.61 times; intestinal portion run by the marker relative to the length run after physiological solution with Tween 80 (rat intestinal motility; 1.0 mg of compound/kg): 1.74 times; effect of the compound as such on body temperature (CB1 receptors [2]): does not cause as such any effect on the body temperature |
